Data reported in ChEMBL document CHEMBL1147026, “Synthesis of pseudopeptides based L-tryptophan as a potential antimicrobial agent” (Bioorg Med Chem Lett, 2007).
Values after ≈ are worked out from the molar mass of the structure shown.

What was measured:
Staphylococcus aureus [1] = assay: Antibacterial activity against methicillin-resistant Staphylococcus aureus CMAH 0430 after 24 hrs by two fold dilution method; format: functional
Candida albicans [2] = assay: Antifungal activity against Candida albicans ATCC 10231 after 48 to 72 hrs by broth microdilution method; format: functional
Staphylococcus aureus [3] = assay: Antibacterial activity against methicillin-susceptible Staphylococcus aureus ATCC 25923 after 24 hrs by two fold dilution method; format: functional; conditions: ATCC 25923, 24 h
Candida albicans [4] = assay: Antifungal activity against Candida albicans CMAM 0594 after 48 to 72 hrs by broth microdilution method; format: functional
Rhodotorula glutinis = assay: Antimicrobial activity against Rhodotorula glutinis SYM 2209 after 48 to 72 hrs by broth microdilution method; format: functional
Candida albicans [5] = assay: Antifungal activity against fluconazole-resistant Candida albicans CMAH 0520 after 48 to 72 hrs by broth microdilution method; format: functional
[6] = Toxicity in human erythrocytes assessed as haemolysis upto 30 ug/mL; format: cell-based, Erythrocyte; conditions: read-out: Activity
Candida albicans [7] = assay: Antifungal activity against Candida albicans CMAH 0501 after 48 to 72 hrs by broth microdilution method; format: functional
Bacillus subtilis = assay: Antimicrobial activity against Bacillus subtilis after 24 hrs by two fold dilution method; format: functional
Candida albicans [8] = assay: Antifungal activity against fluconazole-resistant Candida albicans CMAM 0597 after 48 to 72 hrs by broth microdilution method; format: functional
Candida albicans [9] = assay: Antifungal activity against Candida albicans CMAH 0503 after 48 to 72 hrs by broth microdilution method; format: functional
Micrococcus luteus = assay: Antimicrobial activity against Micrococcus luteus CMCC(B) 28001 after 24 hrs by two fold dilution method; format: functional
Candida albicans [10] = assay: Antifungal activity against Candida albicans CMAH 0507 after 48 to 72 hrs by broth microdilution method; format: functional
Aspergillus sp. = assay: Antifungal activity against Aspergillus sp. after 48 to 72 hrs by broth microdilution method; format: functional
Candida albicans [11] = assay: Antifungal activity against Candida albicans CMAH 0572 after 48 to 72 hrs by broth microdilution method; format: functional
Proteus vulgaris = assay: Antimicrobial activity against Proteus vulgaris CMCC(B) 49001 after 24 hrs by two fold dilution method; format: functional
Candida albicans [12] = assay: Antifungal activity against Candida albicans CMAM 0592 after 48 to 72 hrs by broth microdilution method; format: functional
Staphylococcus aureus [13] = assay: Antibacterial activity against methicillin-resistant Staphylococcus aureus CMAH 0504 after 24 hrs by two fold dilution method; format: functional
Klebsiella aerogenes = assay: Antibacterial activity against Enterobacter aerogenes CMCC(B) 45103 after 24 hrs by two fold dilution method; format: functional
Candida albicans [14] = assay: Antifungal activity against Candida albicans CMAH 0511 after 48 to 72 hrs by broth microdilution method; format: functional
Cryptococcus neoformans = assay: Antifungal activity against Cryptococcus neoformans ATCC 90112 after 48 to 72 hrs by broth microdilution method; format: functional
Staphylococcus aureus [15] = assay: Antibacterial activity against methicillin-resistant Staphylococcus aureus CMAH 0515 after 24 hrs by two fold dilution method; format: functional
Saccharomyces cerevisiae = assay: Antimicrobial activity against Saccharomyces cerevisiae after 48 to 72 hrs by broth microdilution method; format: functional
[16] = Toxicity in human erythrocytes assessed as haemolysis upto 4000 ug/mL; format: cell-based, Erythrocyte; conditions: read-out: Activity
Candida albicans [17] = assay: Antifungal activity against Candida albicans CMAH 0527 after 48 to 72 hrs by broth microdilution method; format: functional
[18] = Toxicity in human erythrocytes assessed as haemolysis upto 500 ug/mL; format: cell-based, Erythrocyte; conditions: read-out: Activity
Pseudomonas aeruginosa = assay: Antimicrobial activity against Pseudomonas aeruginosa ATCC 27853 after 24 hrs by two fold dilution method; format: functional; conditions: ATCC 27853, 24 h
Escherichia coli = assay: Antimicrobial activity against Escherichia coli ATCC 25922 after 24 hrs by two fold dilution method; format: functional; conditions: ATCC 25922, 24 h
Candida albicans [19] = assay: Antifungal activity against Candida albicans CMAM 0577 after 48 to 72 hrs by broth microdilution method; format: functional

Work on `COC(=O)[C@H](Cc1c[nH]c2ccccc12)NC(=O)c1ccccn1` yielded an MBC (Staphylococcus aureus [1]) of 4 µg/mL (≈ 12.4 µM), an MIC (Staphylococcus aureus [1]) of 1 µg/mL (≈ 3.09 µM) and an MFC (Candida albicans [2]) of 4 µg/mL (≈ 12.4 µM). The MIC (Candida albicans [2]) was 8 µg/mL (≈ 24.7 µM), the MBC (Staphylococcus aureus [3]) was 8 µg/mL (≈ 24.7 µM) and the MIC (Staphylococcus aureus [3]) was 1 µg/mL (≈ 3.09 µM). For the same compound, the MFC (Candida albicans [4]) was 32 µg/mL (≈ 99 µM), the MIC (Candida albicans [4]) was 8 µg/mL (≈ 24.7 µM) and the MFC (Rhodotorula glutinis) was 2 µg/mL (≈ 6.19 µM). It also gave an MIC (Rhodotorula glutinis) of 1 µg/mL (≈ 3.09 µM), an MFC (Candida albicans [5]) of 32 µg/mL (≈ 99 µM) and an MIC (Candida albicans [5]) of 8 µg/mL (≈ 24.7 µM). It also gave a hemolysis [6] of 50%, an MFC (Candida albicans [7]) of 4 µg/mL (≈ 12.4 µM) and an MIC (Candida albicans [7]) of 16 µg/mL (≈ 49.5 µM). It also gave an MBC (Bacillus subtilis) of 16 µg/mL (≈ 49.5 µM), an MIC (Bacillus subtilis) of 4 µg/mL (≈ 12.4 µM) and an MFC (Candida albicans [8]) of 32 µg/mL (≈ 99 µM). It also gave an MIC (Candida albicans [8]) of 8 µg/mL (≈ 24.7 µM), an MFC (Candida albicans [9]) of 32 µg/mL (≈ 99 µM) and an MIC (Candida albicans [9]) of 8 µg/mL (≈ 24.7 µM). For the same compound, the MBC (Micrococcus luteus) was 8 µg/mL (≈ 24.7 µM), the MIC (Micrococcus luteus) was 4 µg/mL (≈ 12.4 µM) and the MFC (Candida albicans [10]) was 16 µg/mL (≈ 49.5 µM). It also gave an MIC (Candida albicans [10]) of 8 µg/mL (≈ 24.7 µM), an MFC50 (Aspergillus sp.) of 64 µg/mL (≈ 198 µM) and an MFC90 (Aspergillus sp.) of over 128 µg/mL. For the same compound, the MIC (Aspergillus sp.; Aspergillus sp.) was 33.6 µg/mL (≈ 104 µM), the MIC50 (Aspergillus sp.; Aspergillus sp.) was 8 µg/mL (≈ 24.7 µM) and the MIC90 (Aspergillus sp.; Aspergillus sp.) was 64 µg/mL (≈ 198 µM). For the same compound, the MFC (Candida albicans [11]) was 64 µg/mL (≈ 198 µM), the MIC (Candida albicans [11]) was 32 µg/mL (≈ 99 µM) and the MBC (Proteus vulgaris) was over 128 µg/mL. The MIC (Proteus vulgaris) was 32 µg/mL (≈ 99 µM), the MFC (Candida albicans [12]) was 16 µg/mL (≈ 49.5 µM) and the MIC (Candida albicans [12]) was 4 µg/mL (≈ 12.4 µM). It also gave an MBC (Staphylococcus aureus [13]) of 8 µg/mL (≈ 24.7 µM), an MIC (Staphylococcus aureus [13]) of 2 µg/mL (≈ 6.19 µM) and an MIC (Klebsiella aerogenes) of 64 µg/mL (≈ 198 µM). It also gave an MFC (Candida albicans [14]) of 4 µg/mL (≈ 12.4 µM), an MIC (Candida albicans [14]) of 2 µg/mL (≈ 6.19 µM) and an MFC (Cryptococcus neoformans) of 2 µg/mL (≈ 6.19 µM). The MIC (Cryptococcus neoformans) was 1 µg/mL (≈ 3.09 µM), the MBC (Staphylococcus aureus [15]) was 4 µg/mL (≈ 12.4 µM) and the MIC (Staphylococcus aureus [15]) was 1 µg/mL (≈ 3.09 µM). The MFC (Saccharomyces cerevisiae) was 8 µg/mL (≈ 24.7 µM), the MIC (Saccharomyces cerevisiae) was 4 µg/mL (≈ 12.4 µM) and the hemolysis [16] was 6%. For the same compound, the MFC (Candida albicans [17]) was 32 µg/mL (≈ 99 µM), the MIC (Candida albicans [17]) was 16 µg/mL (≈ 49.5 µM) and the hemolysis [18] was 2.52%. It also gave an MBC (Pseudomonas aeruginosa) of over 128 µg/mL, an MIC (Pseudomonas aeruginosa) of 32 µg/mL (≈ 99 µM) and an MIC (Escherichia coli) of 64 µg/mL (≈ 198 µM). For the same compound, the MFC (Candida albicans [19]) was 64 µg/mL (≈ 198 µM) and the MIC (Candida albicans [19]) was 32 µg/mL (≈ 99 µM).
